Measurements as given in patent US20080233132A1, “MULTIPLE SCLEROSIS THERAPY” (priority 2006, published 2008).

Legend:
γ-secretase [1] = molecular target: T1, γ-secretase (Homo sapiens, UniProt P49768); details: displacement assay; cited from earlier work
CD4+ T cells = test: cell-culture assay of T cell proliferation and Th1 differentiation; assay type: cell-based
EAE animals = test: LY411575 injected into EAE animals; assay type: in vivo
Method: When LY411575 was injected into EAE animals, the severity of EAE was decreased.

T cells = details: Minter et al. 2005; cited from earlier work
EAE [2] = details: injected prior to disease onset; Minter et al. 2005; cited from earlier work
γ-secretase [3] = molecular target: T1, γ-secretase; details: recombinant APP C100 substrate; Takahashi et al. 2003; cited from earlier work
aged rats = details: total dose infused i.v.=1 ug, Fischer et al. 1987; cited from earlier work
EAE [4] = details: Sanna et al. 2006; cited from earlier work
MS patients = details: some, but not all, onsets approximately six months following the onset of therapy; cited from earlier work

In the case of C[C@H](NC(=O)Cc1cc(F)cc(F)c1)C(=O)N[C@H](C(=O)OC(C)(C)C)c1ccccc1 [DAPT], the “competition for the γ-secretase active site” value (γ-secretase [1]) is given as “compete moderately”.
In the case of C[C@H](NC(=O)[C@@H](O)c1cc(F)cc(F)c1)C(=O)N[C@@H]1C(=O)N(C)c2ccccc2-c2ccccc21 [LY411575], the “amount of T cell differentiation of the inflammatory Th1 subset of CD4+ T cells” value (CD4+ T cells) is reported as “decreased”, the “effect on T cell proliferation” value (CD4+ T cells) is reported as “no observed effect” and the “severity of EAE” value (EAE animals) is reported as “decreased”. The “Th1 differentiation in vitro” value (T cells) was “decreased”, the “effect on T cell proliferation” value (T cells) was “no effect” and the “severity of EAE” value (EAE [2]) was “lessened”.
In the case of CSc1ccc(/C=C2/C(C)=C(CC(=O)O)c3cc(F)ccc32)cc1 [sulindac sulfide], the γ-secretase activity (γ-secretase [3]) is given as “preferentially inhibits”.
In the case of NGF: nerve growth factor, the “cholinergic neuron atrophy and spatial memory impairment” value (aged rats) is given as “ameliorate”.
In the case of glatiramer acetate [GA], the “progression of EAE” value (EAE [4]) is listed as “block progression” and the clinical relapses (MS patients) is listed as “modest reduction”.
